PubChem BioAssay AID248 (DTP/NCI, 2004)
Where “and” joins values, the source holds several entries; their conditions need not be identical. Equal entries are not always repeated. Toxic doses and inconclusive results are not listed. No stated cut-off is given here; in the data, active means T/C of 150% or more; inactive means T/C below 125%.

Tested on: L1210 leukemia ip in BDF1 mice, survival T/C
Assay: NCI In Vivo Anticancer Drug Screen. Data for tumor model L1210 Leukemia (intraperitoneal) in B6D2F1 (BDF1) mice
Conditions: endpoint: mean survival time, higher = longer survival
Procedure, shortened: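 Tumor cells were implanted, animals were treated, and survival was followed. The result divides the treated measurement by the vehicle-control measurement.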

[1] = dose: 100.0 mg/kg/injection, schedule: Q01DX009 (ip), vehicle: Klucel (hydroxypropylcellulose) (HPC)
[2] = dose: 200.0 mg/kg/injection, schedule: Q01DX009 (ip), vehicle: Klucel (hydroxypropylcellulose) (HPC)
[3] = dose: 75.0 mg/kg/injection, schedule: Q01DX001 (ip), vehicle: carboxymethylcellulose (CMC)
[4] = dose: 150.0 mg/kg/injection, schedule: Q01DX001 (ip), vehicle: carboxymethylcellulose (CMC)
[5] = dose: 100.0 mg/kg/injection, schedule: Q01DX001 (ip), vehicle: saline
[6] = dose: 100.0 mg/kg/injection, schedule: Q01DX001 (ip), vehicle: carboxymethylcellulose (CMC)
[7] = dose: 200.0 mg/kg/injection, schedule: Q01DX001 (ip), vehicle: carboxymethylcellulose (CMC)
[8] = dose: 400.0 mg/kg/injection, schedule: Q01DX001 (ip), vehicle: carboxymethylcellulose (CMC)
[9] = dose: 200.0 mg/kg/injection, schedule: Q01DX001 (ip), vehicle: saline
[10] = dose: 400.0 mg/kg/injection, schedule: Q01DX001 (ip), vehicle: saline
[11] = dose: 100.0 mg/kg/injection, schedule: Q04DX003 (ip), vehicle: saline
[12] = dose: 200.0 mg/kg/injection, schedule: Q04DX003 (ip), vehicle: saline
[13] = dose: 400.0 mg/kg/injection, schedule: Q04DX003 (ip), vehicle: saline

Measured: T/C

NC(N)=NN=C(c1ccc([N+](=O)[O-])s1)c1ccc([N+](=O)[O-])s1
inactive: dose: 15.0 mg/kg/injection, schedule: Q01DX Z (ip), vehicle: carboxymethylcellulose (CMC) 97 % of control | dose: 30.0 mg/kg/injection, schedule: Q01DX Z (ip), vehicle: carboxymethylcellulose (CMC) 95 % of control | dose: 60.0 mg/kg/injection, schedule: Q01DX Z (ip), vehicle: carboxymethylcellulose (CMC) 97 % of control and 105 % of control | dose: 120.0 mg/kg/injection, schedule: Q01DX Z (ip), vehicle: carboxymethylcellulose (CMC) 94 % of control and 95 % of control | dose: 240.0 mg/kg/injection, schedule: Q01DX Z (ip), vehicle: carboxymethylcellulose (CMC) 100 % of control | dose: 480.0 mg/kg/injection, schedule: Q01DX Z (ip), vehicle: carboxymethylcellulose (CMC) 90 % of control

Cc1c(C)c2c(c(C)c1O)CCC(C)(C)O2
inactive: dose: 50.0 mg/kg/injection, schedule: Q01DX009 (ip), vehicle: Klucel (hydroxypropylcellulose) (HPC) 97 % of control | [1] 100 % of control | [2] 103 % of control

NC(CC(=O)CCl)C(=O)O (configuration not stated)
inactive: dose: 9.4 mg/kg/injection, schedule: Q01DX009 (ip), vehicle: saline 107 % of control | dose: 18.8 mg/kg/injection, schedule: Q01DX009 (ip), vehicle: saline 102 % of control | dose: 22.0 mg/kg/injection, schedule: Q04DX003 (ip), vehicle: saline 121 % of control | [3] 121 % of control | dose: 75.0 mg/kg/injection, schedule: Q01DX009 (ip), vehicle: carboxymethylcellulose (CMC) 88 % of control | [4] 109 % of control

C[N+](C)(C)C1CCCCCCC1
inactive: dose: 75.0 mg/kg/injection, schedule: Q01DX001 (ip), vehicle: saline 96 % of control | dose: 150.0 mg/kg/injection, schedule: Q01DX001 (ip), vehicle: saline 108 % of control

CC(=O)CC(=O)N1CCCCCC1
inactive: dose: 100.0 mg/kg/injection, schedule: Q01DX009 (ip), vehicle: gum acacia 93 % of control | dose: 100.0 mg/kg/injection, schedule: Q04DX003 (ip), vehicle: saline with Tween-80 98 % of control | dose: 200.0 mg/kg/injection, schedule: Q01DX009 (ip), vehicle: gum acacia 98 % of control | dose: 200.0 mg/kg/injection, schedule: Q04DX003 (ip), vehicle: saline with Tween-80 95 % of control | dose: 400.0 mg/kg/injection, schedule: Q01DX009 (ip), vehicle: gum acacia 101 % of control | dose: 400.0 mg/kg/injection, schedule: Q04DX003 (ip), vehicle: saline with Tween-80 102 % of control

CSc1cc(=O)n2c3ccccc3c3ccnc1c32
inactive: dose: 5.0 mg/kg/injection, schedule: Q01DX001 (ip), vehicle: saline 98 % of control | dose: 10.0 mg/kg/injection, schedule: Q01DX001 (ip), vehicle: saline 98 % of control | dose: 20.0 mg/kg/injection, schedule: Q01DX001 (ip), vehicle: saline 100 % of control | dose: 40.0 mg/kg/injection, schedule: Q01DX001 (ip), vehicle: saline 98 % of control | dose: 80.0 mg/kg/injection, schedule: Q01DX001 (ip), vehicle: saline 100 % of control | [5] 120 % of control

CC(=O)OCCC/C(=C/c1cc2ccccc2c2ccccc12)[N+](=O)[O-]
inactive: [6] 95 % of control | [7] 95 % of control | [8] 97 % of control

COC(=O)C1=CCN(C)CC1
inactive: [5] 93 % of control | [9] 101 % of control | [10] 93 % of control

COC(=O)c1ccc(O)c(Cl)c1
inactive: [6] 96 % of control | dose: 100.0 mg/kg/injection, schedule: Q01DX009 (ip), vehicle: carboxymethylcellulose (CMC) 96 % of control | dose: 100.0 mg/kg/injection, schedule: Q04DX002 (ip), vehicle: carboxymethylcellulose (CMC) 103 % of control and 90 % of control | dose: 100.0 mg/kg/injection, schedule: Q04DX003 (ip), vehicle: carboxymethylcellulose (CMC) 97 % of control and 105 % of control | [7] 97 % of control | dose: 200.0 mg/kg/injection, schedule: Q01DX009 (ip), vehicle: carboxymethylcellulose (CMC) 92 % of control | dose: 200.0 mg/kg/injection, schedule: Q04DX002 (ip), vehicle: carboxymethylcellulose (CMC) 105 % of control and 90 % of control | dose: 200.0 mg/kg/injection, schedule: Q04DX003 (ip), vehicle: carboxymethylcellulose (CMC) 100 % of control and 91 % of control | [8] 91 % of control | dose: 400.0 mg/kg/injection, schedule: Q01DX009 (ip), vehicle: carboxymethylcellulose (CMC) 96 % of control | dose: 400.0 mg/kg/injection, schedule: Q04DX002 (ip), vehicle: carboxymethylcellulose (CMC) 97 % of control | dose: 400.0 mg/kg/injection, schedule: Q04DX003 (ip), vehicle: carboxymethylcellulose (CMC) 102 % of control and 103 % of control

Cc1cccc(OCCOC(=O)Nc2cccc(C(F)(F)F)c2)c1
inactive: [5] 104 % of control | dose: 100.0 mg/kg/injection, schedule: Q01DX009 (ip), vehicle: saline 100 % of control and 87 % of control | dose: 100.0 mg/kg/injection, schedule: Q04DX002 (ip), vehicle: saline 100 % of control and 101 % of control | [11] 101 % of control | [9] 106 % of control | dose: 200.0 mg/kg/injection, schedule: Q01DX009 (ip), vehicle: saline 92 % of control and 87 % of control | dose: 200.0 mg/kg/injection, schedule: Q04DX002 (ip), vehicle: saline 100 % of control and 105 % of control | [12] 106 % of control | [10] 109 % of control | dose: 400.0 mg/kg/injection, schedule: Q01DX009 (ip), vehicle: saline 94 % of control | dose: 400.0 mg/kg/injection, schedule: Q04DX002 (ip), vehicle: saline 92 % of control and 97 % of control | [13] 103 % of control

CCCCCCCCCCCCOc1ccc(C(=O)O)cc1
inactive: dose: 50.0 mg/kg/injection, schedule: Q01DX001 (ip), vehicle: other 100 % of control | dose: 100.0 mg/kg/injection, schedule: Q01DX001 (ip), vehicle: other 100 % of control | dose: 200.0 mg/kg/injection, schedule: Q01DX001 (ip), vehicle: other 93 % of control | dose: 400.0 mg/kg/injection, schedule: Q01DX001 (ip), vehicle: other 93 % of control

Cn1ccc[n+]1C
inactive: [5] 93 % of control | [9] 101 % of control | [10] 92 % of control

c1ccc(-n2ncc3ccccc32)cc1
inactive: dose: 50.0 mg/kg/injection, schedule: Q01DX001 (ip), vehicle: saline with Tween-80 100 % of control | dose: 100.0 mg/kg/injection, schedule: Q01DX001 (ip), vehicle: saline with Tween-80 100 % of control | dose: 200.0 mg/kg/injection, schedule: Q01DX001 (ip), vehicle: saline with Tween-80 96 % of control

COc1ccc2c(O)c(Cl)c(=O)oc2c1
inactive: [11] 91 % of control | [12] 91 % of control | [13] 94 % of control

CC(C)(N)CN
inactive: [5] 96 % of control | [9] 96 % of control | [10] 94 % of control

ClC1CC2CCC1(Cl)C2 (configuration not stated)
inactive: [1] 97 % of control | dose: 100.0 mg/kg/injection, schedule: Q04DX003 (ip), vehicle: Klucel (hydroxypropylcellulose) (HPC) 96 % of control | [2] 92 % of control | dose: 200.0 mg/kg/injection, schedule: Q04DX003 (ip), vehicle: Klucel (hydroxypropylcellulose) (HPC) 100 % of control | dose: 400.0 mg/kg/injection, schedule: Q01DX009 (ip), vehicle: Klucel (hydroxypropylcellulose) (HPC) 93 % of control | dose: 400.0 mg/kg/injection, schedule: Q04DX003 (ip), vehicle: Klucel (hydroxypropylcellulose) (HPC) 96 % of control

CCN(CC)C(=O)C1CCC(CCc2c[nH]c3ccccc23)NC1 (configuration not stated)
inactive: [5] 94 % of control

CCCC1(CC)C(=O)NC(=S)N(C)C1=O (configuration not stated)
inactive: [3] 95 % of control | dose: 75.0 mg/kg/injection, schedule: Q01DX001 (ip), vehicle: other 94 % of control | [4] 98 % of control | dose: 150.0 mg/kg/injection, schedule: Q01DX001 (ip), vehicle: other 111 % of control | dose: 300.0 mg/kg/injection, schedule: Q01DX001 (ip), vehicle: carboxymethylcellulose (CMC) 104 % of control
